Measurements reported in the supplement of paper PMC13380429.

Experiments:
Conditions in all cases: 72 h
[1] = test system: Calu-3; experiment: drug sensitivity score (DSS) for viability; higher = more toxic; extreme values may be limits of the assay
[2] = test system: Vero E6; experiment: as above
[3] = test system: U2OS; experiment: as above
[4] = test system: HepG2; experiment: as above
[5] = test system: Caco-2; experiment: as above
[6] = test system: Calu-3; experiment: cell viability relative to DMSO; higher = less toxic
[7] = test system: Vero E6; experiment: as above
[8] = test system: U2OS; experiment: as above
[9] = test system: HepG2; experiment: as above
[10] = test system: Caco-2; experiment: as above
[11] = test system: Calu-3; experiment: relative viability EC50 (midpoint between 100% and the lowest measured viability); higher = less toxic
[12] = test system: Vero E6; experiment: as above
[13] = test system: U2OS; experiment: as above
[14] = test system: HepG2; experiment: as above
[15] = test system: Caco-2; experiment: as above

Row | SMILES | drug sensitivity score [1] | drug sensitivity score [2] | drug sensitivity score [3] | drug sensitivity score [4] | drug sensitivity score [5] | cell viability ([6]; 1 nM) [%] | cell viability ([6]; 10 nM) [%] | cell viability ([6]; 100 nM) [%] | cell viability ([6]; 1000 nM) [%] | cell viability ([6]; 10000 nM) [%] | cell viability ([7]; 1 nM) [%] | cell viability ([7]; 10 nM) [%] | cell viability ([7]; 100 nM) [%] | cell viability ([7]; 1000 nM) [%] | cell viability ([7]; 10000 nM) [%] | cell viability ([8]; 1 nM) [%] | cell viability ([8]; 10 nM) [%] | cell viability ([8]; 100 nM) [%] | cell viability ([8]; 1000 nM) [%] | cell viability ([8]; 10000 nM) [%] | cell viability ([9]; 1 nM) [%] | cell viability ([9]; 10 nM) [%] | cell viability ([9]; 100 nM) [%] | cell viability ([9]; 1000 nM) [%] | cell viability ([9]; 10000 nM) [%] | cell viability ([10]; 1 nM) [%] | cell viability ([10]; 10 nM) [%] | cell viability ([10]; 100 nM) [%] | cell viability ([10]; 1000 nM) [%] | cell viability ([10]; 10000 nM) [%] | relative viability EC50 [11] [µM] | relative viability EC50 [12] [µM] | relative viability EC50 [13] [µM] | relative viability EC50 [14] [µM] | relative viability EC50 [15] [µM]
1 | O=[N+]([O-])c1c(Nc2cc(F)cc(Cl)c2)ccc2nonc12 [TC-S-7009] | 0 | 0 | 0 | 0 | 0 | 102 | 98.1 | 104 | 106 | 104 | 102 | 102 | 96.4 | 99.5 | 95.8 | 100 | 106 | 97.9 | 105 | 95.9 | 93.1 | 103 | 95.3 | 85.7 | 94.5 | 99.2 | 96.3 | 97.2 | 95.9 | 92.9 | > 10 | > 10 | > 10 | > 10 | > 10
2 | COc1cc(C(=O)N2CCOCC2)cc(OC)c1OC [trimetozine] | 0 | 0 | 0 | 0 | 0 | 98.9 | 94.8 | 101 | 92.1 | 102 | 106 | 107 | 108 | 94.8 | 99.9 | 95.8 | 98.3 | 96.8 | 99.9 | 96.6 | 93.8 | 92.9 | 102 | 95.3 | 98.8 | 95.4 | 105 | 86.4 | 108 | 96.6 | > 10 | > 10 | > 10 | > 10 | > 10
3 | O=C(N/N=C/c1ccccc1O)c1ccccc1O [SCS] | 5 | 2.8 | 4.4 | 7.5 | 8.8 | 108 | 94.9 | 98.2 | 99.3 | 11.9 | 97.6 | 100 | 101 | 102 | 45.4 | 98.7 | 104 | 95.6 | 91.1 | 46.3 | 102 | 94.6 | 94.1 | 86.6 | 5.5 | 97 | 97.6 | 88.6 | 76.5 | 3.6 | 3.11 | 3.35 | 1.89 | 2.04 | 1.6
4 | CC(C)=CCC/C(C)=C/CC/C(C)=C/CCC(=O)OC/C=C(\C)CCC=C(C)C [geranyl-farnesylacetate] | 0 | 0 | 0 | 0 | 0 | 99.1 | 94.6 | 96.8 | 93 | 96.4 | 104 | 102 | 94.4 | 105 | 115 | 98.4 | 95.3 | 102 | 96.7 | 103 | 101 | 107 | 90.8 | 112 | 110 | 95.6 | 95.8 | 106 | 91.4 | 98.9 | > 10 | > 10 | > 10 | > 10 | > 10
5 | CC[C@H](C)n1cc(C)c2c(C(=O)NCc3c(C)cc(C)[nH]c3=O)cc(-c3ccc(N4CCNCC4)nc3)cc21 | 0 | 0 | 0 | 0.1 | 0 | 96.3 | 102 | 107 | 102 | 90.9 | 92.3 | 99.2 | 91.6 | 88.2 | 98.7 | 97.4 | 98.2 | 98.8 | 101 | 91.7 | 98.7 | 97.7 | 99.1 | 99 | 87.9 | 93.9 | 101 | 102 | 102 | 95.1 | > 10 | > 10 | > 10 | > 10 | > 10
6 | CC(C)CN(C[C@@H](OP(=O)(O)O)[C@H](Cc1ccccc1)NC(=O)O[C@H]1CCOC1)S(=O)(=O)c1ccc(N)cc1 [fosamprenavir] | 0 | 0 | 0 | 0 | 0 | 113 | 103 | 107 | 98.2 | 108 | 102 | 101 | 99 | 100 | 96.5 | 101 | 94.8 | 95.9 | 94.2 | 109 | 99.8 | 106 | 102 | 93.5 | 98.7 | 93.7 | 91.5 | 96.5 | 98.1 | 99.6 | > 10 | > 10 | > 10 | > 10 | > 10
7 | CC1(c2ccccc2)OC(C(=O)O)=CC1=O (stereo not given) [acifran] | 0 | 0 | 0 | 0 | 0 | 94.9 | 93.6 | 85.5 | 95.3 | 99.6 | 98.9 | 96.1 | 96.9 | 98.5 | 98 | 103 | 97.9 | 103 | 97.4 | 104 | 90.3 | 91.9 | 97.8 | 108 | 101 | 90.8 | 95.3 | 95.8 | 105 | 98.9 | > 10 | > 10 | > 10 | > 10 | > 10
8 | CC(C)(N)c1nc(-c2ccc(OC(F)(F)F)cc2)c[nH]1 | 0 | 0 | 0 | 0 | 0.1 | 107 | 102 | 90.1 | 105 | 113 | 95.9 | 97.7 | 94.6 | 94.9 | 107 | 98.2 | 94.1 | 96.5 | 95.6 | 95.4 | 96 | 107 | 101 | 117 | 104 | 95.8 | 96.5 | 91.3 | 92 | 88 | > 10 | > 10 | > 10 | > 10 | > 10
9 | Cc1sc(N)c(C(=O)c2cccc(C(F)(F)F)c2)c1C | 0 | 0 | 0 | 0 | 0 | 100 | 91.9 | 99.2 | 100 | 109 | 98.1 | 96.9 | 98 | 99.3 | 100 | 97.9 | 95.9 | 99.9 | 94.9 | 102 | 92.3 | 102 | 93.2 | 96.7 | 92.7 | 97.7 | 96.6 | 97 | 95.6 | 90.6 | > 10 | > 10 | > 10 | > 10 | > 10
10 | CC1(C)S[C@@H]2[C@H](NC(=O)[C@H](NC(=O)N3CCNC3=O)c3ccccc3)C(=O)N2[C@H]1C(=O)O [azlocillin] | 0 | 0 | 0 | 0 | 0 | 97.1 | 100 | 93 | 98.7 | 105 | 95.7 | 96.8 | 96.9 | 94.2 | 98 | 96.6 | 100 | 93.6 | 95 | 98.6 | 99.1 | 88.5 | 99.3 | 93.9 | 88 | 105 | 93 | 91.3 | 98.8 | 98.1 | > 10 | > 10 | > 10 | > 10 | > 10
11 | CNC1CC(c2ccc(Cl)c(Cl)c2)c2ccccc21 (stereo not given) [indatraline] | 0 | 0 | 0 | 0 | 0.1 | 102 | 96.3 | 93 | 107 | 89 | 99.4 | 95.4 | 96.4 | 99.4 | 91.7 | 100 | 102 | 94 | 102 | 90.1 | 97.6 | 96 | 96.4 | 99 | 92.7 | 99.7 | 103 | 95 | 103 | 86.8 | > 10 | > 10 | > 10 | > 10 | > 10
12 | NCCc1cc(O)c(O)cc1O [oxidopamine] | 0 | 0 | 0 | 0 | 0 | 91.1 | 101 | 108 | 108 | 109 | 97.3 | 99.6 | 96.6 | 91.5 | 105 | 96 | 102 | 94.8 | 104 | 103 | 97.4 | 104 | 114 | 107 | 98.7 | 86.7 | 93.3 | 90.7 | 95.4 | 100 | > 10 | > 10 | > 10 | > 10 | > 10
13 | Cc1c(F)cc(C(=O)NC2CC2)cc1-c1ccc(C(=O)NCC(C)(C)C)cn1 [losmapimod] | 2.1 | 1.3 | 0 | 0 | 2.4 | 110 | 94.4 | 90.5 | 84 | 87.7 | 95.8 | 101 | 92.8 | 88.7 | 80.5 | 102 | 96.5 | 97.2 | 90.3 | 92.5 | 97.9 | 99.8 | 105 | 103 | 87.3 | 97 | 90.8 | 90.8 | 83.4 | 80.6 | > 10 | > 10 | > 10 | > 10 | > 10
14 | COc1cc(C(=O)N(CC[C@H]2CCCN2C)C/C(C)=C/c2ccccc2F)cc(OC)c1OC (racemic) | 0 | 0 | 0 | 0.1 | 0 | 93.5 | 108 | 103 | 104 | 94.4 | 102 | 102 | 103 | 99.5 | 99 | 98.6 | 96.8 | 102 | 99.2 | 97.7 | 103 | 102 | 95.8 | 104 | 86.6 | 97.4 | 98.7 | 99.7 | 103 | 93.5 | > 10 | > 10 | > 10 | > 10 | > 10
